From paper doi:10.1101/2025.06.04.657800v3, “Advancing Ligand Binding Affinity Prediction with Cartesian Tensor-Based Deep Learning” (biorxiv, 2025)

Assays:
ENPP1 [1] = molecular target: T1, ENPP1 (Homo sapiens, UniProt P22413); experiment: in vitro enzyme activity assay; assay type: biochemical
T1 construct: purified ENPP1 protein for PTS, enzyme assay and SPR
T1 sequence (P22413 1-925): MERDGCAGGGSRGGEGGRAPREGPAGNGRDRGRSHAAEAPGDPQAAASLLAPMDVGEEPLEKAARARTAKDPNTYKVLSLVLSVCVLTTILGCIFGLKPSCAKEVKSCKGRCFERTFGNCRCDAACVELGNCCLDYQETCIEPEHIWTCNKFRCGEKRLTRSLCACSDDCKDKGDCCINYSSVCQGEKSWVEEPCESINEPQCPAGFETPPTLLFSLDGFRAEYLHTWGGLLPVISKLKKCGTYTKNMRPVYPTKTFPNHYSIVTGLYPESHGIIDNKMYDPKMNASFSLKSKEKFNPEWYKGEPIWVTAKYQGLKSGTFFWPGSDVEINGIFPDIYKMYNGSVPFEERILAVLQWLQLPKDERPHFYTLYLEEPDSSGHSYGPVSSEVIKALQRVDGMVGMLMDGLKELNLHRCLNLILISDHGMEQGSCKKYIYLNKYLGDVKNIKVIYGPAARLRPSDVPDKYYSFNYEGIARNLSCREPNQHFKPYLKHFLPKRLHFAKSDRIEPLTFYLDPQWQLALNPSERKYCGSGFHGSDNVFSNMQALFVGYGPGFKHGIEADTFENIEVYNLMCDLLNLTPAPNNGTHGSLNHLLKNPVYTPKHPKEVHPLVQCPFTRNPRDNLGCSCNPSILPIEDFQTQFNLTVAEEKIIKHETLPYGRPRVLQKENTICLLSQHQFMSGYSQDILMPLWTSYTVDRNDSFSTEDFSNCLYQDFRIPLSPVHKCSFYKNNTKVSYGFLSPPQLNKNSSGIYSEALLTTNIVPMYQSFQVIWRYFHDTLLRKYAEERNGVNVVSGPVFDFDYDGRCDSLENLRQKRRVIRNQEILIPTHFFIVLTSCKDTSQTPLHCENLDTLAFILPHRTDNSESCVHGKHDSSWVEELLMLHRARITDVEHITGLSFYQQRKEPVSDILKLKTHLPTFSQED

ENPP1 [2] = molecular target: T1, ENPP1; experiment: surface plasmon resonance; assay type: binding
ALDH1B1 [3] = molecular target: T2, ALDH1B1 (Homo sapiens, UniProt P30837); experiment: surface plasmon resonance; assay type: binding
T2 construct: purified ALDH1B1 protein, wild type and alanine mutants
T2 sequence (P30837 18-517): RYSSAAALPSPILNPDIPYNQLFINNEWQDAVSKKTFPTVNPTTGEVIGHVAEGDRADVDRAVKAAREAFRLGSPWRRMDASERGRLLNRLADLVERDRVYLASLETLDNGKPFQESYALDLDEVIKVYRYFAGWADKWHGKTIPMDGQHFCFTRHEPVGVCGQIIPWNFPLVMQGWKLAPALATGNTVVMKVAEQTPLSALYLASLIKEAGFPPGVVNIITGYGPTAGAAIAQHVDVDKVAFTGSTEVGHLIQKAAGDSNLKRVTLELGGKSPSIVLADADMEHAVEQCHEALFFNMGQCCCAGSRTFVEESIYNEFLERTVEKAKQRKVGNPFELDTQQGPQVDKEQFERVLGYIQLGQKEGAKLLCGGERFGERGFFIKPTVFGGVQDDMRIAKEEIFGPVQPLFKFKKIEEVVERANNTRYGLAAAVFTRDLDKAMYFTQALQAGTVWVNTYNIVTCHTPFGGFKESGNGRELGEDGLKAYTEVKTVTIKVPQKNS

ALDH1B1 [4] = molecular target: T2, ALDH1B1; experiment: in vitro enzyme activity assay; assay type: biochemical

IC50 (ENPP1 [1]) [nM]	Kd (ENPP1 [2]) [nM]	Compound	Kd (ALDH1B1 [3]) [nM]	IC50 (ALDH1B1 [4]) [nM]
2280	1030	COc1cccc(F)c1-c1nc(C(=O)Nc2ccccc2N2CCC(NS(N)(=O)=O)CC2)cn2ccnc12 [A2]		
		Fc1cc(F)c2c(c1)[C@H]1C=CC[C@H]1[C@@H](c1cccnc1)N2 [B2]	1210	5570
		Fc1cc(F)c2c(c1)[C@@H]1C=CC[C@@H]1[C@H](c1cccnc1)N2 [B1]	15.2	20
